#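 A five-concentration, 48-hour dose response in 96-well plates underlies each endpoint, interpolated linearly between surrounding concentrations. GI50 = concentration required for 50% inhibition of growth. TGI marks complete inhibition of growth.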
# Experiments:
# Test in all cases: NCI-60 cell line screen, 48 h
# SR leukemia = tested on: SR leukemia
# LOX IMVI melanoma = tested on: LOX IMVI melanoma
# NCI-H226 lung = tested on: NCI-H226 lung
# COLO 205 colon = tested on: COLO 205 colon
# SW-620 colon = tested on: SW-620 colon
# ACHN renal = tested on: ACHN renal
# OVCAR-3 ovarian = tested on: OVCAR-3 ovarian
# SF-539 CNS = tested on: SF-539 CNS
# UACC-257 melanoma = tested on: UACC-257 melanoma
# RXF 393 renal = tested on: RXF 393 renal
SMILES,TGI (SR leukemia),TGI (LOX IMVI melanoma),TGI (NCI-H226 lung),TGI (COLO 205 colon),TGI (SW-620 colon),TGI (ACHN renal),TGI (OVCAR-3 ovarian),TGI (SF-539 CNS),TGI (UACC-257 melanoma),TGI (RXF 393 renal),GI50 (LOX IMVI melanoma),GI50 (NCI-H226 lung),GI50 (COLO 205 colon),GI50 (SW-620 colon),GI50 (ACHN renal),GI50 (OVCAR-3 ovarian),GI50 (SF-539 CNS),GI50 (UACC-257 melanoma),GI50 (RXF 393 renal),GI50 (SR leukemia)
O=C1CS(=O)(=O)C(c2cccc(Oc3ccccc3)c2)N1C1CC1 (centres undefined),> 100 µM,> 100 µM,83.6 µM,72.9 µM,> 100 µM,80 µM,> 100 µM,> 100 µM,> 100 µM,55.1 µM,,,,,,,,,,
Cc1cn(Cc2cn(CC3OC(n4cc(C)c(=O)[nH]c4=O)CC3O)nn2)c(=O)[nH]c1=O (centres undefined),,,> 100 µM,> 100 µM,> 100 µM,> 100 µM,> 100 µM,> 100 µM,> 100 µM,> 100 µM,,,,,,,,,,
CCN(CCO)CCNc1ccc(C)c2sc3ccccc3c(=O)c12,> 22.4 µM,5.18 µM,14 µM,3.12 µM,5.5 µM,15 µM,23.3 µM,10.3 µM,6.16 µM,5.64 µM,,,,,,,,,,
O=C([CH-]C(=O)c1ccccc1)c1ccccc1.O=C([CH-]C(=O)c1ccccc1)c1ccccc1.O=C([CH-]C(=O)c1ccccc1)c1ccccc1.[Cl-].[Hf+4],,> 100 µM,54 µM,> 100 µM,> 100 µM,> 100 µM,> 100 µM,41.8 µM,69.5 µM,23.2 µM,23.3 µM,13 µM,23.9 µM,10.8 µM,33.9 µM,15.2 µM,17.2 µM,22.2 µM,7.68 µM,
Cn1c2cn[nH]c(=O)c2c2ccc3ccccc3c21,> 100 µM,53.8 µM,> 100 µM,> 100 µM,> 100 µM,45.9 µM,> 100 µM,> 100 µM,> 100 µM,62.9 µM,,,,,,,,,,
O=C(O)CCCN=C(C1=C(O)C(=O)N(c2ccccc2)C1=O)c1ccccc1,64.9 µM,> 100 µM,> 100 µM,> 100 µM,> 100 µM,> 100 µM,> 100 µM,> 100 µM,> 100 µM,> 100 µM,,,,,,,,,,
O=c1[nH]c(=O)n(CCOCP(=O)(O)O)nc1Br,> 100 µM,> 100 µM,> 100 µM,> 100 µM,> 100 µM,> 100 µM,> 100 µM,> 100 µM,,> 100 µM,,,,,,,,,,
Cc1cc(=O)n2c3c(c4c(cc13)c(CN(C)C)cc(=O)n4C)OC2,> 100 µM,> 100 µM,> 67.1 µM,35.1 µM,> 82.3 µM,39.1 µM,80.1 µM,24.2 µM,> 70.5 µM,28.7 µM,,,,,,,,,,
CCCCCCCCCCCCCCCCCC(=O)OCC1OC(OC)C(NC(=O)N(CCCl)N=O)C(O)C1O (centres undefined),> 100 µM,31.8 µM,86.8 µM,> 100 µM,47.8 µM,47.3 µM,65.6 µM,24.2 µM,39.4 µM,32.1 µM,,,,,,,,,,
O=c1[nH]c2cc([N+](=O)[O-])c(N/N=C/c3ccc(Cl)cc3Cl)c([N+](=O)[O-])c2[nH]1,,> 100 µM,> 100 µM,> 100 µM,> 100 µM,> 100 µM,35.3 µM,> 100 µM,> 100 µM,40.9 µM,,,,,,,,,,
CC(C)(C)c1cc(-c2nc3ccc(N4CCN(CCO)CC4)cc3[nH]2)cc(C(C)(C)C)c1O,> 100 µM,3.43 µM,> 100 µM,4.78 µM,,> 100 µM,> 100 µM,4.91 µM,,,1.86 µM,21.5 µM,2.21 µM,,3.39 µM,3.36 µM,2.13 µM,,,2.77 µM
N=C(N)c1ccc(N=Nc2c(O)ccc3cc4c(N=Nc5ccc(C(=N)N)cc5)c(O)ccc4cc23)cc1,> 100 µM,,> 100 µM,> 100 µM,> 100 µM,> 100 µM,> 100 µM,> 100 µM,> 100 µM,> 100 µM,,,,,,,,,,
C/C(=C\C(=N\NC(=N)N)c1ccccc1)c1ccccc1,6.59 µM,2.56 µM,13 µM,0.284 µM,1.73 µM,1.17 µM,1.03 µM,1.85 µM,,8.42 µM,,,,,,,,,,
O=C(NC(Cc1ccc(Cl)cc1)C(=O)O)c1ccc(I)cc1 (centres undefined),,> 100 µM,> 100 µM,> 100 µM,> 100 µM,,> 100 µM,> 100 µM,> 100 µM,> 100 µM,,,,,,,,,,

# From PubChem BioAssay (NCI)
